Values joined by “and” are separate entries in the source; they are usually repeats but may differ in a detail not shown here. Equal entries are not always repeated.
Key:
Assay type in all cases: in vivo
Cockroaches = assay: Cockroach toxicity by forced exposure on treated filter paper; details: forced exposure 24 hours
Protocol: Additionally, toxicity was determined by forced exposure testing under the following protocol. Filter paper circles were treated with test compound. Cockroaches were released onto the treated circles and covered with inverted plastic cylinders placed over the paper discs. The cockroaches were left on the substrates for 24 hours and checked for mortality.

[1] = test system: brown marmorated stink bugs (BMSB); assay: Brown marmorated stink bug repellency, treated vs. untreated filter paper arena
Protocol: The two semi-circle filter papers were aligned together to completely cover the bottom of the test arena. Control arenas were also set up in a similar fashion except both were treated with acetone. Five replicates of 5 BMSB were then introduced into both the treated and control arenas. By releasing them in the center of the arena, the BMSB were presented with a choice of treated vs. untreated substrate (or untreated vs. untreated in the control arenas). The repellency of the BMSB was recorded at 24 hours post-treatment.

stable flies = assay: Human forearm test against stable flies, time to first confirmed bite; details: average of two trials, maximum 8 hours
Protocol: Two insect repellents per day were tested by applying one on each arm of a human subject and inserting the arms into a cage containing 50 stable flies. The exposure period was five minutes at every 30 minute interval until the first time a confirmed bite was […] The stable flies were reared at ambient temperature, relative humidity and photoperiod. Groups of 50 flies were aspirated from the cage and released into 16 oz. cups with screened lids, which were used to release flies into the two test cages. […] Adjacent areas above and below the treated area were protected with elastic bandages held in place with Elastikon® surgical tape.
The application rate was between 0.65 ml and 1 ml/250 cm^2 for all repellents. The actual amount of repellent used was based upon the amount that provides thorough coverage of the 250 cm^2 treatment area. A repellent was applied using either a micropipette or a syringe minus the needle. The repellents were then evenly spread on the treatment area with a gloved finger. Each test subject's forearms were allowed to air dry for approximately 30 minutes prior to the first exposure. The study coordinator or technician assisted the test subjects in inserting their arms into the test cages, taking care not to rub them on the cloth sleeve. Both treated arms were inserted into a cage; there were two subjects (4 arms) per cage. The test subjects exposed their treated forearms to the flies in the test cages for 5 minutes. The subjects then removed their arms from the cages with assistance from the study coordinator or a technician. Exposures of each arm were repeated every 30 minutes until the repellent on that arm was determined to be no longer effective (‘breakdown’) or until 8 hours have elapsed, whichever occurs first.
Breakdown occurs when the first confirmed bite is noted. A confirmed bite occurs when a bite is followed by a second bite in the same exposure period or in the next succeeding exposure period. The second bite becomes the confirming bite and the breakdown time is taken as the time of the first bite. When a confirmed bite occurs, testing is discontinued on that arm. Results in Table 3 below are the average of two trials on two different test subjects. Compounds were diluted in isopropyl alcohol.

Black Widow spiders = assay: Black Widow spider choice test in half-treated tube shelters; details: 5% in isopropanol; location after 24 hours
Protocol: Control against Black Widow spiders was determined using the following protocol. One test container containing two card stock tube shelters, one half treated with a test sample and the other half treated with isopropanol was prepared. A spider was introduced in the center of the tube. The spider was then given a choice to move to one end of the shelters. The following day, its location is recorded and compared to the results from a shelter containing untreated half-shelters.
On the day of the test one of the two shelters was sprayed with the test sample solution using a 2 oz pump spray bottle. Only the surfaces that the spider will most likely contact were treated. Therefore, only the inside of one of the shelter tubes, including the end disc (spiders will not be able to access the outside part of the shelter) were sprayed. The total amount of product was weighed and recorded. The treated surface was allowed to dry for a minimum of ½ hour, or until solvent could not be detected by smell. At this time the shelter tubes were assembled.
Card stock paper tube shelters were constructed from 2 half-letter sized sheets (5½″×8½″) of paper, rolled and taped together to form a short tube. One end of each was covered with a circle of card stock paper, while the other end was later taped to the open end of the other half sheet, forming one long tube. […] The solvent-treated half was labeled with a “C” on the inner and outer walls with a pencil or a pen with solvent resistant ink. Prior to forming the final tube shelter, a semi-circular hole was cut into one of the margins of each sheet such that, once the two tubes are taped together, the holes correspond to the top and at the junction of the tubes for introduction of the spiders.
Twenty-five arenas were prepared in this manner for each test sample. There were five replicates of five spiders. Twenty-five additional control arenas were also prepared. They were prepared the same way, except that areas to be sprayed were sprayed with isopropanol only.
Replicates of five spiders were selected for each test formulation and for the control. The specimens were visually examined for overall physical condition. […] The spiders were transferred directly into the holding vials using flexible forceps or with a little coaxing with an artist brush. Because of their cannibalistic tendencies, each vial contained only one spider. There they were held until the time for testing.
At the test start the spiders were placed directly in the middle, through the opening at the top of the shelter tube, and the opening covered, with only one spider per arena. […] They were left alone for 24 hours, after which time their location within the arena was recorded. Spiders present inside the shelter treated with the test repellent were considered tolerant.

German cockroaches = assay: German cockroach repellency, choice of food stations in arena; details: 50% in acetone; at 4 hours
Protocol: The efficacy of compounds of this invention to control or repel German cockroaches was illustrated using the following protocol. One food pellet each was placed on a paper square (station) treated with one of the repellent materials. Materials were diluted to 50% in acetone and a straight acetone station was also used. Both stations were placed on the same side of the arena. Cockroaches were starved for 2 days and then released into the arena. They were given a choice to feed on either food pellet. A control arena with an acetone treated station and an untreated station was also used. The distribution of cockroaches within the arena was recorded at 30 minute intervals over 4 hours. Repellency at 4 hours was calculated by the number of cockroaches on the untreated station vs. the total number of cockroaches on the stations.

[2] = test system: Brown Dog Ticks, Rhipicephalus sanguineus; assay: Brown Dog tick repellency on vertical filter paper strips; details: 7.5% in isopropyl alcohol
Protocol: Control against Brown Dog ticks was determined in the following protocol. Strips of filter paper, 1″ by 3″, were placed on a sheet of aluminum foil treated with 1 ml each of the test samples and allowed to dry. The end of each treated strip was stapled to an untreated filter paper strip of the same dimensions. The stapled strips were suspended in a vertical position above a tray, with the treated half attached to a horizontal glass rod by a metal clip. The untreated half was lowered when the strip is vertically positioned. Brown Dog Ticks, Rhipicephalus sanguineus, mixed sexes, were purchased from a supplier. Five replicates of five ticks for each treatment regimen plus five additional replicates for the control were employed. Ticks shipped to the test site were given at least one day to acclimate to “shipping stress” before they are used for testing. Those tick specimens which appeared sluggish or moribund were not used. Suitable ticks were removed from their containers and allowed to quest on the free end of the test strip. Once present on the strip they were watched as they crawled up the strip until they contacted the treated paper. If the tick, once in contact with the treated zone, either turned around, stopped without proceeding further, or dropped off, the tick is classified as repelled. If it continued to crawl onto the treated strip, even after it stopped briefly, that tick was classified as not repelled. A maximum observation time of 1 minute per replicate was allowed for ticks to respond after reaching the treated area, but during the test, if more time was needed, the maximum observation time may have been adjusted at the discretion of the study coordinator. At the end of the observation time, the number of ticks repelled was recorded. Tick behavior was recorded when applicable, such as whether increased number of affected or repelled ticks occurred in successive replicates over time. After the completion of each treatment parameter, the testing chamber was ventilated for five minutes by turning on the exhaust fan and opening the door leading into the chamber. Ticks were used only once. Average number of ticks displaying each behavior category were calculated and compared to the control replicates.

house flies = assay: House fly repellency on treated filter paper food trays in cages; details: over 6 hours
Protocol: The bottom of each cage was lined with brown craft paper and divided into 4 equal quadrants. Each quadrant housed a makeshift filter paper food tray. Two of the four filter papers were treated with repellent and two treated with isopropanol. Control cages contained filter papers that were treated with 4 filter papers of isopropanol only. The number of flies resting on filter paper per quadrant was recorded every 30 minutes for a total of 6 hours. Cages were rotated to eliminate positional bias. […] Each of the test samples were diluted in isopropyl alcohol.

Brown Dog Ticks = assay: Second repellent assay against Brown Dog Ticks; details: 15% in isopropyl alcohol
Protocol: Also, a second repellent assay was used to evaluate six test samples against Brown Dog Ticks. Five replicates of five ticks were given the opportunity to quest onto a vertical strip of untreated filter paper and then allowed to move upward toward a second vertical strip of filter paper treated with one of the six candidate repellents or DEET®. In the control situation, the second strip was treated with isopropanol. They were then observed for directional or behavioral changes caused in response to contact with the repellent. Ticks were recorded as either repelled or not repelled. Compounds were diluted in isopropyl alcohol. The percentages of ticks repelled are shown below in Table 6.

[3] = 30% in isopropyl alcohol on forearm

Structure (SMILES)	% Repellency at 24 hours ([1]; 2.5% in isopropyl alcohol)	100% bite protection for (stable flies; [3])	% Repellency 4 hr (German cockroaches)	Overall % Repellency (house flies; 7.5% in isopropyl alcohol)	also measured
CCCCCCCC1CC(=O)C=C(C)C1 (stereo not shown) [3-Methyl-5-heptyl-2-cyclohexenone, 3-methyl-5-heptyl-2-cyclohexenone]					Mortality @ 24 hours (Cockroaches; 2.5% in acetone): 10%
CCCCCC1CC(=O)C=C(C)C1 (stereo not shown) [3-Methyl-5-pentyl-2-cyclohexenone, 3-methyl-5-pentyl-2-cyclohexenone]					Mortality @ 24 hours (Cockroaches; 2.5% in acetone): 96%
CC1CCC(C(C)(C)O)C(O)C1 (stereo not shown) [PMD, p-Menthane-3,8-diol, reference compound]	80%	6.5 h			100% bite protection for (stable flies; 15% in isopropyl alcohol on forearm): 4.25 h
CCCCCC1C(=O)CCC1CC(=O)OCCC (stereo not shown) [Propyl dihydrojasmonate, propyl dihydrojasmonate]	80%	4 h	87.5%	23%	% Repellency (Black Widow spiders): 62.5%; % Repellency at 24 hours ([1]; 5% in isopropyl alcohol): 100%; Mean % repelled [2]: 96%; Overall % Repellency (house flies; 5% in isopropyl alcohol): 52%; Mean % repelled (Brown Dog Ticks): 100%
CCCCCCCCCCCCCC1CCC(=O)O1 (stereo not shown) [gamma-Heptadecalactone]			100%	39%	Mortality @ 24 hours (Cockroaches; neat): 22%
CCCCCCCCCC1(C)CCC(=O)O1 (stereo not shown) [gamma-Methyl tridecalactone, gamma methyl tridecalactone]	80%	1.75 h			
CCCCCCCCCCC1CCC(=O)O1 (stereo not shown) [gamma-Tetradecalactone, gamma-tetradecalactone]	82%		82.4% and 75%	80%	% Repellency at 24 hours ([1]; 5% in isopropyl alcohol): 91%; Mortality @ 24 hours (Cockroaches; neat): 46%; Mean % repelled (Brown Dog Ticks): 92%

— patent publication US10785978B2, “Control and repellency of biting flies, house flies, ticks, ants, fleas, biting midges, cockroaches, spiders and stink bugs” (priority 2012, dated 2020)
